Here are results for three molecules from US7834010B2, “Modulators of peripheral 5-HT receptors” (Serodus AS, priority 2003, dated 2010).

Structures are written as SMILES. Values joined by “and” are separate entries in the source; they are usually repeats but may differ in a detail not shown here. Identical values can stand only once.

The target in test [1] is T1, human 5-HT4(b) receptors (Homo sapiens, UniProt Q13639).
T1 construct: expressed in transfected cells; membranes prepared
Put plainly: Radioligand binding assay with [3H]GR113808 on membranes of HEK293 cells stably expressing human 5-HT4(b) receptors. The settings on record: competition with [3H]GR113808, HEK293 membranes, each line one individual measurement, read-out: Binding affinity (pKd value) (individual measurements) (converted). The procedure: (§1) Establishment of HEK293 Cell Lines Stably Expressing Human 5-HT4(b) Receptors
(§2) The development of HEK293 cell lines stably expressing human 5-HT4(b) receptors was described and published previously (Bach et al. 2001). Briefly, HEK293 cells (ATCC) were grown in Dulbecco's modified Eagle's medium with 10% fetal calf serum and penicillin (100 U/ml) and streptomycin (100 μg/ml). Cells were transfected with plasmid DNA (pcDNA3.1(−) containing human 5-HT4(b) receptor cDNA) using SuperFect Transfection Reagent (QIAGEN) according to the manufacturers protocol. Serial dilutions of transfected cells were plated in 96 well plates containing G418 (geneticin; Amersham) at 0.4 mg/ml, and isolated single colonies of cells transformed to the neomycin-resistant phenotype were expanded and tested for expression of serotonin receptors by measuring serotonin-stimulated adenylyl cyclase activity (Themmen et al. 1993). Transformed cells were always grown in the presence of G418 (0.4 mg/ml). For binding and adenylyl cyclase analysis, stable cell lines were grown and maintained in UltraCULTURE™ general purpose serum-free medium (BioWhittaker, Walkersville, Md., USA), supplemented with L-glutamine (2 mM), penicillin (100 U/ml) and streptomycin (100 μg/ml).
Membrane Preparation for Radioligand Binding and Adenylyl Cyclase Assay […]
Binding assays were performed in 96-well, round-bottom microtiter plates with total reaction volumes of 50-200 μl, containing the indicated concentration of [^3H]GR113808 with or without competing unlabelled ligand in a binding buffer containing 50 mM Tris-HCl (pH 7.5 at RT), 1 mM EDTA, 5 mM EGTA, 2 mM MgCl2, 1 mM ascorbate, 0.1% BSA and 100 μM GTP. […] The filters were dried and counted at approximately […] efficiency in a Top-Count liquid scintillation counter (Packard), using 20 μl per filter well of Micro-Scint liquid scintillation cocktail (Packard).
Binding and adenylyl cyclase data were analyzed by non-linear regression using Microsoft Excel with the Solver add-in, using the below equations. […]

Test [2] concerns the target T1, human 5-HT4(b) receptors. Put plainly: Adenylyl cyclase assay in membranes of HEK293 cells stably expressing human 5-HT4(b) receptors. The settings on record: for Kb: each line one individual measurement, read-out: Antagonist pKb value (individual measurements) (converted). In kind it is biochemical. As for the experimental part:
as §1, §2
Membrane Preparation for Radioligand Binding and Adenylyl Cyclase Assay
Membranes were prepared from stably transfected HEK293 cells cultured on 150-mm cell culture dishes and grown to 80% confluence in serum-free medium (UltraCULTURE™, BioWhittaker) with penicillin (10 U/ml) and 2 mM L-Glutamine (BioWhittaker). Cells were washed twice with 10 ml ice-cold HBSS, scraped with a rubber policeman in 10 ml ice-cold HBSS and collected by centrifugation at 800 g for 5 min at 4° C. The cell pellet was resuspended in 1 ml/dish ice-cold STE buffer (27% (w/v) sucrose, 50 mM Tris-HCl, pH 7.5 at 20° C., 5 mM EDTA) and homogenized with an Ultra-Turrax (IKA) homogenizer, using five 10 s bursts with 30 s cooling in ice-water between bursts. To remove nuclei, the homogenate was centrifuged at 300 g for 5 min at 4° C. and the supernatant was further centrifuged at 17000 g for 20 min at 4° C. and the supernatant removed. The crude membrane pellet was resuspended with ten strokes of tight fitting pestle B in a Dounce glass-glass homogenizer in 1 ml/dish ice-cold TE (50 mM Tris-HCl, pH 7.5 at RT, 5 mM EDTA). This procedure was repeated twice and the resuspended membranes were finally aliquoted and flash frozen in liquid nitrogen and stored at −70° C. until use.
Adenylyl cyclase activity was measured by determining conversion of [α-^32P]ATP to [^32P]cAMP in membranes prepared in STE by homogenization of cells grown and washed as described above in a Dounce glass-glass homogenizer by 10 strokes with the tight-fitting pestle. Membranes were kept on ice prior to assay. Adenylyl cyclase activities were measured on 10-μl aliquots in a final volume of 50 μl in the presence of 0.1 mM [α-^32P]ATP (1-2×10^6 cpm/assay), 4 mM MgCl2, 20 μM GTP, 1 mM EDTA, 1 mM [^3H]cAMP (ca. 10,000 cpm/assay), 1 μM 3-isobutyl-1-methyl xanthine (IBMX; Sigma), a nucleoside triphosphate regenerating system consisting of 20 mM creatine phosphate (Sigma), 0.2 mg/ml creatine phosphokinase (Sigma) and 40 U/ml myokinase (Sigma) and additives described in the text and figures. When forskolin (Calbiochem, La Jolla, Calif., USA) was used the concentration was 100 μM. Incubations were for 20 min at 32EC. Cyclic AMP formed was quantified by the double column chromatography system of Salomon et al. (1974) as modified by Bockaert et al. (1976).
Binding and adenylyl cyclase data were analyzed by non-linear regression using Microsoft Excel with the Solver add-in, using the below equations.
Activation of adenylyl cyclase—The data were fit to the equation Y=a+(b−a)x/(c+x) where a is basal adenylyl cyclase activity, b is maximal adenylyl cyclase activity stimulated by the agonist, c is EC50, and x is the concentration of agonist.

T1 sequence (Q13639 whole entry): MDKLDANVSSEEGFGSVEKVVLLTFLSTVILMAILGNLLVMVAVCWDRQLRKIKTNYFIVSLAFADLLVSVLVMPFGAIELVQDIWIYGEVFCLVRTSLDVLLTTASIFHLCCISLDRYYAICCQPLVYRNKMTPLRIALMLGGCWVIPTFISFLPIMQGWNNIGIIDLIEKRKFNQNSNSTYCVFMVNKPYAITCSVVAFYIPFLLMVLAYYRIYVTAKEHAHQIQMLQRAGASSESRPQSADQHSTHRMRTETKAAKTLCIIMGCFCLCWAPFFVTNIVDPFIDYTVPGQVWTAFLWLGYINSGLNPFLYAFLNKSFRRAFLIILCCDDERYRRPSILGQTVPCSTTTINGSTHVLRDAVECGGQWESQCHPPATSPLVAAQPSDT

`CCCCN1CCC(COC(=O)c2c[nH]c3ccccc23)CC1` [DDL-6002]: the Kd on human 5-HT4(b) receptors [1] was 0.0282 nM and 0.0219 nM. On human 5-HT4(b) receptors [2], the Agonist/Antagonist properties result is on record as “Antagonist” and the Kb was 0.129 nM.
For the molecule `CCCCN1CCC(CNC(=O)c2c3n(c4ccccc24)CCCO3)CC1` [SB207266], the Kd at human 5-HT4(b) receptors [1] was 0.0174 nM. Besides, on human 5-HT4(b) receptors [2], the Agonist/Antagonist properties entry is “Antagonist”; the Kb was 0.132 nM and 0.17 nM.
For `Cn1cc(C(=O)OCC2CCN(CCNS(C)(=O)=O)CC2)c2ccccc21` [GR113808, 1-methyl-1H-indole-3-carboxylic acid, [1-[2-[(methylsulfonyl)amino]ethyl]-4-piperidinyl]methyl ester], the Kd at human 5-HT4(b) receptors [1] was 0.115 nM and 0.049 nM and 0.0617 nM and 0.0195 nM. Moreover, on human 5-HT4(b) receptors [2], the Agonist/Antagonist properties entry is listed as “Antagonist”; the Kb was 0.105 nM and 0.135 nM and 0.17 nM and 0.224 nM and 0.151 nM and 0.178 nM.
